Assay results taken from US20060100431A1, “Biologically active compounds” (Amura Therapeutics Limited, priority 2002, published 2006).

These molecules were tested against T1, human cathepsin K (Homo sapiens, UniProt P43235) (assay: Cathepsin K peptidase activity assay (Ki)). Conditions: Table 5.
T1 construct: Dr. Boris Turk (Josef Stefan Institute, Ljubljana, Slovenia)
T1 sequence (P43235 115-329): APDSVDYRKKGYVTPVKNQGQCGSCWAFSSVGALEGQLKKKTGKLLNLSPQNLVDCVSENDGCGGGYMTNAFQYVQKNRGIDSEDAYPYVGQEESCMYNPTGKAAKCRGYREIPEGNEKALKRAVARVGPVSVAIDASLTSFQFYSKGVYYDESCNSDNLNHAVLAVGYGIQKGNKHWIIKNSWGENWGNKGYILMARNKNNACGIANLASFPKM
Format: biochemical
Protocol: Unless otherwise stated, all general chemicals and biochemicals were purchased from either the Sigma Chemical Company, Poole, Dorset, U.K or from Fisher Scientific UK, Loughborough, Leicestershire, U.K. Absorbance assays were carried out in flat-bottomed 96-well plates (Spectra; Greiner Bio-One Ltd., Stonehouse, Gloucestershire, U.K.) using a SpectraMax PLUS384 plate reader (Molecular Devices, Crawley, U.K.). […] Fluorescence assays were monitored using a SpectraMax Gemini fluorescence plate reader (Molecular Devices). For substrates employing either a 7-amino-4-methylcoumarin (AMC) or a 7-amino-4-trifluoromethylcoumarin (AFC) fluorophore, assays were monitored at an excitation wavelength of 365 nm and an emission wavelength of 450 nm and the fluorescence plate reader calibrated with AMC. For substrates employing a 3-amino-benzoyl (Abz) fluorophore, assays were monitored at an excitation wavelength of 310 nm and an emission wavelength of 445 nm; the fluorescence plate reader calibrated with 3-amino-benzamide (Fluka). Unless otherwise indicated, all the peptidase substrates were purchased from Bachem UK, St Helens, Merseyside, UK. […] Hydroxyethylpiperazine ethanesulfonate (HEPES), tris-hydroxylmethyl aminomethane (tris) base, bis-tris-propane and all the biological detergents (e.g. CHAPS, zwittergents, etc.) were purchased from CN Biosciences UK, Beeston, Nottinghamshire, U.K. Glycerol was purchased from Amersham Pharmacia Biotech, Little Chalfont, Buckinghamshire, U.K. Stock solutions of substrate or inhibitor were made up to 10 mM in 100% dimethylsulfoxide (DMSO) (Rathburns, Glasgow, U.K.) and diluted as appropriately required. In all cases the DMSO concentration in the assays was maintained at less than 1% (vol./vol.).
Enzyme was added as required to initiate the reaction and the activity, as judged by the change in fluorescence upon conversion of substrate to product, was monitored over time. All assays were carried out at 25±1° C.
Bovine cathepsin S, human cathepsin L, human cathepsin H and human cathepsin B were obtained from CN Biosciences. Recombinant human cathepsin S, human cathepsin K and human cathepsin X were obtained from Dr. Boris Turk (Josef Stefan Institute, Ljubljana, Slovenia). Unless otherwise stated, all peptidase activity assays were carried out in 10 mM bis-tris-propane (BTP), pH 6.5 containing 1 mM EDTA, 5 mM 2-mercaptoethanol and 1 mM CaCl2.
The apparent inhibition constant (Ki) for each compound was determined on the basis that inhibition was reversible and occurred by a pure-competitive mechanism. […] [formula]
[formula] Ki^app=Ki(1+[So]/KM^app) (4)
Curves were fitted by non-linear regression analysis (Prism) using a fixed value for the enzyme concentration.

First: CC(C)C[C@H](NC(=O)c1ccc(-c2cccs2)cc1)C(=O)N1CC[C@@H]2[C@H]1C(=O)CN2C(=O)c1ccccc1 [Example 2, (3aR,6aS)-N-[(1S)-1-(4-Benzoyl-6-oxo-hexahydro-pyrrolo[3,2-b]pyrrole-1-carbonyl)-3-methyl-butyl]-4-thiophen-2-yl-benzamide]
Second: CC(C)(C)c1ccc(C(=O)N[C@@H](Cc2ccc(O)cc2)C(=O)N2CC[C@@H]3[C@H]2C(=O)CN3C(=O)c2ccccc2)cc1 [Example 346, (3aR,6aS)-N-[(1S)-2-(4-Benzoyl-6-oxo-hexahydro-pyrrolo[3,2-b]pyrrol-1-yl)-1-(4-hydroxybenzyl)-2-oxo-ethyl]-4-tert-butyl-benzamide]
The Ki of the first is lower: less than 0.01 µM for the first, greater than 8 µM for the second.

O=C(N[C@@H](CC1CCCCC1)C(=O)N1CC[C@@H]2[C@H]1C(=O)CN2C(=O)c1ccccc1)c1ccsc1 [Example 250, (3aR,6aS)-Thiophene-3-carboxylic acid [(1S)-2-(4-benzoyl-6-oxo-hexahydro-pyrrolo[3,2-b]pyrrole-1-yl)-1-cyclohexylmethyl-2-oxo-ethyl]-amide] and O=C(N[C@@H](Cc1ccc(O)cc1)C(=O)N1CC[C@@H]2[C@H]1C(=O)CN2C(=O)c1ccccc1)c1cccc2ccccc12 [Example 296, (3aR,6aS)-Naphthalene-1-carboxylic acid [(1S)-2-(4-benzoyl-6-oxo-hexahydro-pyrrolo[3,2-b]pyrrole-1-yl)-1-(4-hydroxybenzyl)-2-oxo-ethyl]-amide] cannot be ordered by Ki: greater than 5 µM for the first, greater than 50 µM for the second.
